Tested on: EPHHL: wild poinsettia (Euphorbia heterophylla)
Assay: Post-Emergent Test II herbicidal activity
Type: in vivo
Details: post-emergence, 336 h, 140 g ai/ha, 14 days, read-out: Visual Growth Reduction (%) 14 Days After Application EPHHL
Procedure, shortened: (§1)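 Test species are sprayed post-emergence when they reach the first or second true leaf, using an aqueous acetone/DMSO spray with crop oil and surfactant delivered at 187 L/ha. Plants are kept in the greenhouse with subirrigation, and damage compared with untreated plants is rated visually at 14 d on a 0-100% scale.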

| Compound | pest or weed control at 140 g/ha [%] |
| --- | --- |
| COC(=O)c1nc(-c2cc3nonc3cc2F)c(F)c(N)c1Cl [Compound 3, Methyl 4-amino-3-chloro-5-fluoro-6-(6-fluorobenzo[c][1,2,5]oxadiazol-5-yl)picolinate] | 60 to 74 |

Tested on: ECHCG: barnyardgrass (Echinochloa crus-galli)
Assay: Post-Emergent Test II herbicidal activity
Type: in vivo
Details: post-emergence, 336 h, 35 g ai/ha, 14 days, read-out: Visual Growth Reduction (%) 14 Days After Application ECHCG
Procedure, shortened: as §1

| Compound | pest or weed control at 35 g/ha [%] |
| --- | --- |
| COC(=O)c1nc(-c2cc3nonc3cc2F)c(F)c(N)c1Cl [Compound 3, Methyl 4-amino-3-chloro-5-fluoro-6-(6-fluorobenzo[c][1,2,5]oxadiazol-5-yl)picolinate] | 95 to 100 |

Same assay, conditions: post-emergence, 336 h, 70 g ai/ha, 14 days, read-out: Visual Growth Reduction (%) 14 Days After Application ECHCG

| Compound | pest or weed control at 70 g/ha [%] |
| --- | --- |
| COC(=O)c1nc(-c2cc3nonc3cc2F)c(F)c(N)c1Cl [Compound 3, Methyl 4-amino-3-chloro-5-fluoro-6-(6-fluorobenzo[c][1,2,5]oxadiazol-5-yl)picolinate] | 95 to 100 |

Same assay, conditions: post-emergence, 336 h, 140 g ai/ha, 14 days, read-out: Visual Growth Reduction (%) 14 Days After Application ECHCG

| Compound | pest or weed control at 140 g/ha [%] |
| --- | --- |
| COC(=O)c1nc(-c2cc3nonc3cc2F)c(F)c(N)c1Cl [Compound 3, Methyl 4-amino-3-chloro-5-fluoro-6-(6-fluorobenzo[c][1,2,5]oxadiazol-5-yl)picolinate] | 75 to 84 |

Tested on: ORYSA: rice (Oryza sativa)
Assay: Post-Emergent Test II herbicidal activity
Type: in vivo
Details: post-emergence, 336 h, 35 g ai/ha, 14 days, read-out: Visual Growth Reduction (%) 14 Days After Application ORYSA
Procedure, shortened: as §1

| Compound | pest or weed control at 35 g/ha [%] |
| --- | --- |
| COC(=O)c1nc(-c2cc3nonc3cc2F)c(F)c(N)c1Cl [Compound 3, Methyl 4-amino-3-chloro-5-fluoro-6-(6-fluorobenzo[c][1,2,5]oxadiazol-5-yl)picolinate] | 0 to 29 |

Same assay, conditions: post-emergence, 336 h, 70 g ai/ha, 14 days, read-out: Visual Growth Reduction (%) 14 Days After Application ORYSA

| Compound | pest or weed control at 70 g/ha [%] |
| --- | --- |
| COC(=O)c1nc(-c2cc3nonc3cc2F)c(F)c(N)c1Cl [Compound 3, Methyl 4-amino-3-chloro-5-fluoro-6-(6-fluorobenzo[c][1,2,5]oxadiazol-5-yl)picolinate] | 0 to 29 |

Same assay, conditions: post-emergence, 336 h, 140 g ai/ha, 14 days, read-out: Visual Growth Reduction (%) 14 Days After Application ORYSA

| Compound | pest or weed control at 140 g/ha [%] |
| --- | --- |
| COC(=O)c1nc(-c2cc3nonc3cc2F)c(F)c(N)c1Cl [Compound 3, Methyl 4-amino-3-chloro-5-fluoro-6-(6-fluorobenzo[c][1,2,5]oxadiazol-5-yl)picolinate] | 0 to 29 |

Tested on: CHEAL: lambsquarters (Chenopodium album)
Assay: Post-Emergent Test II herbicidal activity
Type: in vivo
Details: post-emergence, 336 h, 35 g ai/ha, 14 days, read-out: Visual Growth Reduction (%) 14 Days After Application CHEAL
Procedure, shortened: as §1

| Compound | pest or weed control at 35 g/ha [%] |
| --- | --- |
| COC(=O)c1nc(-c2cc3nonc3cc2F)c(F)c(N)c1Cl [Compound 3, Methyl 4-amino-3-chloro-5-fluoro-6-(6-fluorobenzo[c][1,2,5]oxadiazol-5-yl)picolinate] | 85 to 94 |

Same assay, conditions: post-emergence, 336 h, 70 g ai/ha, 14 days, read-out: Visual Growth Reduction (%) 14 Days After Application CHEAL

| Compound | pest or weed control at 70 g/ha [%] |
| --- | --- |
| COC(=O)c1nc(-c2cc3nonc3cc2F)c(F)c(N)c1Cl [Compound 3, Methyl 4-amino-3-chloro-5-fluoro-6-(6-fluorobenzo[c][1,2,5]oxadiazol-5-yl)picolinate] | 85 to 94 |

Same assay, conditions: post-emergence, 336 h, 140 g ai/ha, 14 days, read-out: Visual Growth Reduction (%) 14 Days After Application CHEAL

| Compound | pest or weed control at 140 g/ha [%] |
| --- | --- |
| COC(=O)c1nc(-c2cc3nonc3cc2F)c(F)c(N)c1Cl [Compound 3, Methyl 4-amino-3-chloro-5-fluoro-6-(6-fluorobenzo[c][1,2,5]oxadiazol-5-yl)picolinate] | 85 to 94 |

Tested on: ABUTH: velvetleaf (Abutilon theophrasti)
Assay: Post-Emergent Test II herbicidal activity
Type: in vivo
Details: post-emergence, 336 h, 35 g ai/ha, 14 days, read-out: Visual Growth Reduction (%) 14 Days After Application ABUTH
Procedure, shortened: as §1

| Compound | pest or weed control at 35 g/ha [%] |
| --- | --- |
| COC(=O)c1nc(-c2cc3nonc3cc2F)c(F)c(N)c1Cl [Compound 3, Methyl 4-amino-3-chloro-5-fluoro-6-(6-fluorobenzo[c][1,2,5]oxadiazol-5-yl)picolinate] | 45 to 59 |

Same assay, conditions: post-emergence, 336 h, 70 g ai/ha, 14 days, read-out: Visual Growth Reduction (%) 14 Days After Application ABUTH

| Compound | pest or weed control at 70 g/ha [%] |
| --- | --- |
| COC(=O)c1nc(-c2cc3nonc3cc2F)c(F)c(N)c1Cl [Compound 3, Methyl 4-amino-3-chloro-5-fluoro-6-(6-fluorobenzo[c][1,2,5]oxadiazol-5-yl)picolinate] | 0 to 29 |

Same assay, conditions: post-emergence, 336 h, 140 g ai/ha, 14 days, read-out: Visual Growth Reduction (%) 14 Days After Application ABUTH

| Compound | pest or weed control at 140 g/ha [%] |
| --- | --- |
| COC(=O)c1nc(-c2cc3nonc3cc2F)c(F)c(N)c1Cl [Compound 3, Methyl 4-amino-3-chloro-5-fluoro-6-(6-fluorobenzo[c][1,2,5]oxadiazol-5-yl)picolinate] | 0 to 29 |

Tested on: TRZAS: wheat, spring (Triticum aestivum)
Assay: Post-Emergent Test II herbicidal activity
Type: in vivo
Details: post-emergence, 336 h, 35 g ai/ha, 14 days, read-out: Visual Growth Reduction (%) 14 Days After Application TRZAS
Procedure, shortened: as §1

| Compound | pest or weed control at 35 g/ha [%] |
| --- | --- |
| COC(=O)c1nc(-c2cc3nonc3cc2F)c(F)c(N)c1Cl [Compound 3, Methyl 4-amino-3-chloro-5-fluoro-6-(6-fluorobenzo[c][1,2,5]oxadiazol-5-yl)picolinate] | 45 to 59 |

Same assay, conditions: post-emergence, 336 h, 70 g ai/ha, 14 days, read-out: Visual Growth Reduction (%) 14 Days After Application TRZAS

| Compound | pest or weed control at 70 g/ha [%] |
| --- | --- |
| COC(=O)c1nc(-c2cc3nonc3cc2F)c(F)c(N)c1Cl [Compound 3, Methyl 4-amino-3-chloro-5-fluoro-6-(6-fluorobenzo[c][1,2,5]oxadiazol-5-yl)picolinate] | 45 to 59 |

Same assay, conditions: post-emergence, 336 h, 140 g ai/ha, 14 days, read-out: Visual Growth Reduction (%) 14 Days After Application TRZAS

| Compound | pest or weed control at 140 g/ha [%] |
| --- | --- |
| COC(=O)c1nc(-c2cc3nonc3cc2F)c(F)c(N)c1Cl [Compound 3, Methyl 4-amino-3-chloro-5-fluoro-6-(6-fluorobenzo[c][1,2,5]oxadiazol-5-yl)picolinate] | 60 to 74 |

Tested on: ZEAMX: maize, corn (Zea mays)
Assay: Post-Emergent Test II herbicidal activity
Type: in vivo
Details: post-emergence, 336 h, 35 g ai/ha, 14 days, read-out: Visual Growth Reduction (%) 14 Days After Application ZEAMX
Procedure, shortened: as §1

| Compound | pest or weed control at 35 g/ha [%] |
| --- | --- |
| COC(=O)c1nc(-c2cc3nonc3cc2F)c(F)c(N)c1Cl [Compound 3, Methyl 4-amino-3-chloro-5-fluoro-6-(6-fluorobenzo[c][1,2,5]oxadiazol-5-yl)picolinate] | 60 to 74 |

Same assay, conditions: post-emergence, 336 h, 70 g ai/ha, 14 days, read-out: Visual Growth Reduction (%) 14 Days After Application ZEAMX

| Compound | pest or weed control at 70 g/ha [%] |
| --- | --- |
| COC(=O)c1nc(-c2cc3nonc3cc2F)c(F)c(N)c1Cl [Compound 3, Methyl 4-amino-3-chloro-5-fluoro-6-(6-fluorobenzo[c][1,2,5]oxadiazol-5-yl)picolinate] | 60 to 74 |

Same assay, conditions: post-emergence, 336 h, 140 g ai/ha, 14 days, read-out: Visual Growth Reduction (%) 14 Days After Application ZEAMX

| Compound | pest or weed control at 140 g/ha [%] |
| --- | --- |
| COC(=O)c1nc(-c2cc3nonc3cc2F)c(F)c(N)c1Cl [Compound 3, Methyl 4-amino-3-chloro-5-fluoro-6-(6-fluorobenzo[c][1,2,5]oxadiazol-5-yl)picolinate] | 75 to 84 |
